Laboratory results as given in patent US20230293517A1, “ANTAGONIST COMPOUNDS” (AdoRx Therapeutics Limited, priority 2020, published 2023).

What was measured:
[1] = biological target: human Adenosine A1 receptor (Homo sapiens (Human), UniProt P30542); assay: Adenosine receptor TR-FRET binding assay (A1); details: inhibition of binding of 100 nM CA200645, CHO cell membranes
Outline: (§1)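 Terbium-labelled human receptors in CHO cell membranes were incubated 2 h at room temperature with test compounds and fluorescent XAC tracer CA200645 (30 nM for A2b; 100 nM for A1, A2a, A3). TR-FRET 665/620 nm ratio gave specific binding; Ki derived from IC50 by Cheng–Prusoff.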

[2] = biological target: human Adenosine A2a receptor (Homo sapiens (Human), UniProt P29274); assay: Adenosine receptor TR-FRET binding assay (A2a); details: inhibition of binding of 100 nM CA200645, CHO cell membranes
human Adenosine A2a receptor, sequence (P29274 whole entry): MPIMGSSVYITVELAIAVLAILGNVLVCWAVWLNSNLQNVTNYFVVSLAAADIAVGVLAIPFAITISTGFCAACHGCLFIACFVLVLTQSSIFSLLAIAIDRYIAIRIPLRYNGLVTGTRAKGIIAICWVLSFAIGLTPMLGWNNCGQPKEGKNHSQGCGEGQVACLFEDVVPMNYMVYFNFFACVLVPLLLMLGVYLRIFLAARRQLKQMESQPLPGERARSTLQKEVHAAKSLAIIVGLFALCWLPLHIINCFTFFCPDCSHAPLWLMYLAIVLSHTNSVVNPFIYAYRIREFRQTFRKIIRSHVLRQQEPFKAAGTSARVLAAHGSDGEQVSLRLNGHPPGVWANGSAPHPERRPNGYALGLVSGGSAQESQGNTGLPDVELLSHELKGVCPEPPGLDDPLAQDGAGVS
Outline: as §1

[3] = biological target: human Adenosine A2b receptor (Homo sapiens (Human), UniProt P29275); assay: Adenosine receptor TR-FRET binding assay (A2b); details: TR-FRET, inhibition of binding of 30 nM CA200645, CHO cell membranes
human Adenosine A2b receptor, sequence (P29275 whole entry): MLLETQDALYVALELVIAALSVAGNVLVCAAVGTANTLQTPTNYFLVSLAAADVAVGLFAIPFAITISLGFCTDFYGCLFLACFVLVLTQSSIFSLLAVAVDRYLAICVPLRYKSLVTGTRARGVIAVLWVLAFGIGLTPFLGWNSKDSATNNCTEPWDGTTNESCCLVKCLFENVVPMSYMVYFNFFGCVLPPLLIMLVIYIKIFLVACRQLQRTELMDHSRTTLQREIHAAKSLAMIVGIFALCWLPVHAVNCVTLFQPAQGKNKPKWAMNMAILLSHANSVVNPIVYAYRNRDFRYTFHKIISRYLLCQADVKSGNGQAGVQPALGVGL
Outline: as §1

[4] = biological target: human Adenosine A3 receptor (Homo sapiens (Human), UniProt P0DMS8); assay: Adenosine receptor TR-FRET binding assay (A3); details: inhibition of binding of 100 nM CA200645, CHO cell membranes
human Adenosine A3 receptor, sequence (P0DMS8 whole entry): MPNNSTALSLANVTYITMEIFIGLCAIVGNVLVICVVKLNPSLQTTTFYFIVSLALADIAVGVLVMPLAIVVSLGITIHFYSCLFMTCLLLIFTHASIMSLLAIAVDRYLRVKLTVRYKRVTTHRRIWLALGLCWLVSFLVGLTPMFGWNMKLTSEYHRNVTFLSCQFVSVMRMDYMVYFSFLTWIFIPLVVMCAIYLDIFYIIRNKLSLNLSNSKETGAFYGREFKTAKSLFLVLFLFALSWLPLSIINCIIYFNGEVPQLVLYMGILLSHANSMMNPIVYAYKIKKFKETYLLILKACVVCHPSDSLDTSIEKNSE
Outline: as §1

human PBMCs = assay: CD3/CD28 stimulated IL-2 release NECA reversal assay in human PBMCs; type: cell-based; details: PBMC, 1 uM NECA, 24 hours, IL-2 in culture supernatant
Outline: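 PBMCs from citrated healthy-donor blood plated at 50,000 cells/well on 1 ug/ml CD3 antibody with 1 ug/ml CD28 antibody, 1 uM NECA and 0.003-10 μM antagonist (final), 24 h at 37° C. Supernatant IL-2 measured by MSD immunoassay; % inhibition set against no-NECA control wells as 100%.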

[5] = tested on: CD8+T cells in human whole blood; assay: Measurement of pCREB in CD8+T cells in human whole blood; type: cell-based; details: 3 μM NECA, rolipram
Outline: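 Heparinised human whole blood pre-incubated 20 min at 37 °C with serially diluted A2a antagonists plus rolipram, then stimulated 60 min with 3 μM NECA (final). After fixation and red-cell lysis, white cells were permeabilized and stained for phospho-CREB and CD8; pCREB in CD8+ T cells measured by flow cytometry.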

human Adenosine A1 receptor, sequence (P30542 whole entry): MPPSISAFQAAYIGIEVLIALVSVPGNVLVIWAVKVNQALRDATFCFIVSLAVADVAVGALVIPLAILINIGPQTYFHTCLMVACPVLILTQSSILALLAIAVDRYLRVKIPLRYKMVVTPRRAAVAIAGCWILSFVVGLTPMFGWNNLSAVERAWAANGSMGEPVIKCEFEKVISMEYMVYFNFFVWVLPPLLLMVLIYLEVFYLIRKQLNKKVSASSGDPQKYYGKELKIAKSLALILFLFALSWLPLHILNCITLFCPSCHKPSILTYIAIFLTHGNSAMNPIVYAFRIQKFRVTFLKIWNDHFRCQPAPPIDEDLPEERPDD

SMILES | Ki [1] | Ki [2] | Ki [3] | Ki [4] | IC50 [5] | IC50 (human PBMCs)
Cc1cc(-c2sc(NC(=O)N3CCC4(CC3)CN(C)C(=O)O4)nc2-c2cccc(C#N)c2)cc(C)n1 [Example 6.12, N-[4-(3-Cyanophenyl)-5-(2,6-dimethyl-4-pyridyl)thiazol-2-yl]-3-methyl-2-oxo-1-oxa-3,8-diazaspiro[4.5]decane-8-carboxamide] | 137 nM | 0.23 nM | 2.4 nM | 298 nM | 110 nM | 2.7 nM
Cc1cc(-c2sc(NC(=O)N3CCN4CCS(=O)(=O)CC4C3)nc2-c2cccc(C#N)c2)cc(C)n1 (stereo not drawn) [Example 6.14, N-[4-(3-Cyanophenyl)-5-(2,6-dimethyl-4-pyridyl)thiazol-2-yl]-2,2-dioxo-3,4,6,7,9,9a-hexahydro-1H-pyrazino[2,1-c][1,4]thiazine-8-carboxamide] | 167 nM | 0.6 nM | 2.6 nM | 772 nM | 50 nM | 5.3 nM
Cc1cc(-c2sc(NC(=O)N3CCC4(CCNC(=O)C4)CC3)nc2-c2cccc(C#N)c2)cc(C)n1 [Example 6.26, N-[4-(3-Cyanophenyl)-5-(2,6-dimethyl-4-pyridyl)thiazol-2-yl]-10-oxo-3,9-diazaspiro[5.5]undecane-3-carboxamide] | 86 nM | 0.79 nM | 3.8 nM | 302 nM | 80 nM | 3.2 nM
Cc1cc(-c2sc(NC(=O)N3CCC4(CCOCC4)C3)nc2-c2cccc(C#N)c2)cc(C)n1 [Example 6.29, N-[4-(3-Cyanophenyl)-5-(2,6-dimethyl-4-pyridyl)thiazol-2-yl]-8-oxa-2-azaspiro[4.5]decane-2-carboxamide] | 228 nM | 0.95 nM | 3.4 nM | 635 nM | 510 nM | 5.3 nM

Second part, led by results:

Ki [1] | Ki [2] | Ki [3] | Ki [4] | IC50 [5] | SMILES | IC50 (human PBMCs)
35 nM | 0.46 nM | 6.5 nM | 405 nM | 70 nM | Cc1cc(-c2sc(NC(=O)N3CCN4C(=O)OCCC4C3)nc2-c2cccc(C#N)c2)cc(C)n1 (stereo not drawn) [Example 6.17, N-[4-(3-Cyanophenyl)-5-(2,6-dimethyl-4-pyridyl)thiazol-2-yl]-6-oxo-1,3,4,8,9,9a-hexahydropyrazino[1,2-c][1,3]oxazine-2-carboxamide] | 5.3 nM
70 nM | 0.33 nM | 6.1 nM | 332 nM | 40 nM | Cc1cc(-c2sc(NC(=O)N3CCN4C(=O)CCC4C3)nc2-c2cccc(C#N)c2)cc(C)n1 (stereo not drawn) [Example 6.18, N-[4-(3-Cyanophenyl)-5-(2,6-dimethyl-4-pyridyl)thiazol-2-yl]-6-oxo-1,3,4,7,8,8a-hexahydropyrrolo[1,2-a]pyrazine-2-carboxamide] | 5 nM
53 nM | 0.14 nM | 1.9 nM | 287 nM | 20 nM | Cc1cc(-c2sc(NC(=O)N3CCC4(CC3)CNC4=O)nc2-c2cccc(C#N)c2)cc(C)n1 [Example 6.20, N-[4-(3-Cyanophenyl)-5-(2,6-dimethyl-4-pyridyl)thiazol-2-yl]-3-oxo-2,7-diazaspiro[3.5]nonane-7-carboxamide] | 1.8 nM
129 nM | 0.99 nM | 2.5 nM | 224 nM | 90 nM | Cc1cc(-c2sc(NC(=O)N3CCC4(CCNC4=O)CC3)nc2-c2cccc(C#N)c2)cc(C)n1 [Example 6.24, N-[4-(3-Cyanophenyl)-5-(2,6-dimethyl-4-pyridyl)thiazol-2-yl]-1-oxo-2,8-diazaspiro[4.5]decane-8-carboxamide] | 4.7 nM
97 nM | 0.82 nM | 2 nM | 187 nM | 530 nM | Cc1cc(-c2sc(NC(=O)N3CCC(N4CCNC4=O)CC3)nc2-c2cccc(C#N)c2)cc(C)n1 [Example 6.30, N-[4-(3-Cyanophenyl)-5-(2,6-dimethyl-4-pyridyl)thiazol-2-yl]-4-(2-oxoimidazolidin-1-yl)piperidine-1-carboxamide] | 6.9 nM
